Test results reported in PMC7145303, “In Vitro Activities of MMV Malaria Box Compounds against the Apicomplexan Parasite Neospora caninum, the Causative Agent of Neosporosis in Animals” (Molecules, 2020).
Like-named read-outs stand apart in the source and are kept apart here.

Tests used:
[1] = system: N. caninum tachyzoites; type: cell-based, Neospora caninum; conditions: 500 nM, TEM at 6, 12, 24, 48 h of treatment
Description: The transmission electron microscopy of N. caninum-infected HFF monolayers was done as previously described. Briefly, HFFs were grown to confluency in 6-well tissue culture devices and were infected with freshly isolated N. caninum tachyzoites during 2 h at 37 °C/5% CO2. After one wash in PBS, treatments with the compounds (1), (2), and (5) were initiated, all at 500 nM. The controls were treated with the corresponding amount of DMSO. After 6, 12, 24, or 48 h, samples were rinsed in PBS, and were fixed in 100 mM of cacodylate buffer pH7.3 containing 2.5% glutaraldehyde for 2 h at room temperature. The cells were scraped and centrifuged at 1000 g for 10 min at 4 °C and, and the resulting pellet was further fixed in the same solution at 4 °C overnight, followed by post-fixation in 2% OsO4 in cacodylate buffer for 4 h at 4 °C. Subsequently, the specimens were washed and pre-stained in Uranyless^TM (Electron Microscopy Sciences, Hatfield, PA, USA), followed by dehydration in a graded series of ethanol (30%, 50%, 70%, 90%, and 100%). They were finally embedded in Epon 820 epoxy resin over a period of 2 days with 3 resin changes. The resin was polymerized at 65 °C for 24 h, and 80-nm sections were cut on a Reichert and Jung ultramicrotome. The sections were loaded onto 300-mesh copper grids (Plano GmbH, Marburg, Germany) and were stained with Uranyless^TM and lead citrate as described.

[2] = system: Theileria annulata; conditions: cited from earlier work; for Therapeutic index: T. annulata vs macrophages
[3] = system: Cryptosporidium parvum; design: method as in PMID 24566188; conditions: cited from earlier work
[4] = source of values not stated; cited from earlier work
[5] = design: AUC0-inf / AUC0-last: unit not given here; conditions: mice, p.o., data provided by MMV, cited from earlier work; for AUC0-last / MRT0-last / Tlast / Tmax / Cmax: 114 µmol/kg (1),(5), 119 µmol/kg (2); for Cmax: plasma
[6] = system: human foreskin fibroblasts (HFFs); assay: HFF viability, Alamar Blue assay; type: cell-based; conditions: 1 µM compound/well, uninfected confluent HFF, 3 days
Description: For an initial screen, 390 compounds (1 µM compound/well) were added to human foreskin fibroblasts (HFFs) previously seeded in 96-well-plates. DMSO (0.25%) was included as a solvent control. HFF monolayers were either left uninfected or were infected with 10^3 N. caninum beta-galactosidase expressing tachyzoites per well. After 3 days, N. caninum proliferation was assayed by measuring beta-galactosidase activity, and HFF viability was monitored using the Alamar Blue assay. This screen was repeated once for confirmation, yielding identical results. […]
To define the cutoff values in the initial screening, compounds were regarded as effective against N. caninum when the beta-galactosidase values were lower than the mean values of the controls (8 replicates) minus three times the standard deviation of these control values. […] The IC50 values were calculated after the logit-log transformation of the relative growth (RG; control = 1) according to the formula ln (RG/(1 − RG)) = a × ln(drug concentration) + b, and the subsequent regression analysis was carried out using the corresponding software tool contained in the Excel software package (Microsoft, Seattle, WA, USA).

[7] = system: Plasmodium falciparum blood forms; design: method as in PMID 31665424; conditions: cited from earlier work
[8] = system: N. caninum tachyzoites; assay: N. caninum β-galactosidase reporter strain proliferation in HFF (screen and inhibition curves); type: cell-based; conditions: Neospora caninum
Description: Figure 2 Dose response curves of 9 Medicines for Malaria Venture (MMV) Malaria Box compounds. […] The inhibition of N. caninum tachyzoite proliferation was determined using a β-galactosidase reporter strain in the presence of a concentration series of compounds added prior to the infection of confluent human foreskin fibroblasts by tachyzoites. The mean values ± SE are indicated for quadruplicates.
For an initial screen, 390 compounds (1 µM compound/well) were added to human foreskin fibroblasts (HFFs) previously seeded in 96-well-plates. DMSO (0.25%) was included as a solvent control. HFF monolayers were either left uninfected or were infected with 10^3 N. caninum beta-galactosidase expressing tachyzoites per well. After 3 days, N. caninum proliferation was assayed by measuring beta-galactosidase activity, and HFF viability was monitored using the Alamar Blue assay. This screen was repeated once for confirmation, yielding identical results. Forty compounds showing values lower than the cut-off of the beta-galactosidase assay were regarded as effective against N. caninum, compounds yielding values lower than the cutoff of the Alamar Blue assay were regarded as cytotoxic. Effective compounds without cytotoxicity were regarded as potential hits and were retained for further experiments. The IC50 values (inhibitory concentration of 50% of the solvent control value) of selected compounds were determined in quadruplicate wells in the same assay set-up and were calculated as described.
To define the cutoff values in the initial screening, compounds were regarded as effective against N. caninum when the beta-galactosidase values were lower than the mean values of the controls (8 replicates) minus three times the standard deviation of these control values. Furthermore, compounds were regarded as cytotoxic when the Alamar Blue values were lower than the mean values of the untreated controls (8 replicates) minus three times the standard deviation of these control values. The IC50 values were calculated after the logit-log transformation of the relative growth (RG; control = 1) according to the formula ln (RG/(1 − RG)) = a × ln(drug concentration) + b, and the subsequent regression analysis was carried out using the corresponding software tool contained in the Excel software package (Microsoft, Seattle, WA, USA).

[9] = system: cysteine proteinases; design: method as in PMID 27467575; conditions: functional assays; cited from earlier work
[10] = system: Brugia malayi; design: method as in PMID 27467575; conditions: cited from earlier work
[11] = 72 h, 3 days, concentration range 0–250 nM, with 95% confidence intervals

SMILES | Effects on the ultrastructure of N. caninum tachyzoites [1] | Therapeutic index [2] | Effectiveness against T. annulata [2] | LogP [4] | AUC0-last [5] | MRT0-last [5] [h] | Tlast [5] [h] | Tmax [5] [h] | Cmax [5] [nM] | Rapidity of action against P. falciparum blood forms [7] | IC50 [8, 11] [nM] | Effectiveness against C. parvum [3] | other results
CN(C)c1ccc(C(O)(c2ccc(N(C)C)cc2)c2ccc(N(C)C)cc2)cc1 [Compound (1)] | cytoplasmic vacuoles that were already detectable after 6 h of treatment | 2.5 | most effective against T. annulata | 4.76 | 27.2 | 4.80 | 9.00 | 5.00 | 1090 | more slowly than artesunate, but faster than atovaquone | 25 ± 5 |  | Effects on the ultrastructure of N. caninum tachyzoites ([1]; listed as MMV665941): specifically induced distinct alterations in the tachyzoites; IC50 ([3]; read-out: IC50 against Cryptosporidium parvum): ~800 nM; Cytotoxicity against HFFs [6]: did not affect confluent HFFs
O=C(Nc1cccc(C(F)(F)F)c1)c1cc(Cl)ccc1O [Compound (2)] | after a treatment duration of 12 h (Figure 6C), the loss of the tachyzoite mitochondrial matrix was evident |  |  | 6.06 |  | 5.24 | 9.00 | 6.33 | 62 | very rapidly | 71 ± 30 |  | Effects on the ultrastructure of N. caninum tachyzoites ([1]; listed as MMV665807): specifically induced distinct alterations in the tachyzoites
CCCOCc1cc(CN2CCN(c3cccc(Cl)c3)CC2)c(O)c2ncccc12 [Compound (3)] |  |  |  | 4.71 |  |  |  |  |  | very slowly | 99 ± 10 |  | Inhibition of cysteine proteinases [9]: inhibits cysteine proteinases
COc1ccc(C(=O)NC(c2ccc(Cl)cc2Cl)c2cc(Cl)c3cccnc3c2O)cc1 (stereo not drawn) [Compound (4)] |  | around 18 | most effective against T. annulata | 6.15 |  |  |  |  |  | relatively slowly | 79 ± 10 | effective against C. parvum | Effectiveness against the helminth Brugia malayi [10]: effective
O=C1c2ccc3c4c(ccc(c24)C(=O)N1CCCCO)C(=O)N(CCCCO)C3=O [Compound (5)] | ongoing proliferation despite clear ultrastructural alterations |  |  | −1.30 | 0.475 | 1.55 | 7.00 | 0.444 | 308 |  | 150 ± 30 | effective against C. parvum with an IC50 in same range | Effects on the ultrastructure of N. caninum tachyzoites ([1]; listed as MMV009085): specifically induced distinct alterations in the tachyzoites; AUC0-inf ([5]; 114 µmol/kg): 0.486; MRT0-inf ([5]; 114 µmol/kg): 1.80 h; T1/2 ([5]; 114 µmol/kg): 1.48 h; IC50 [8]: < 200 nM
